These results are taken from patent US20150315211A1, “SMALL MOLECULES FOR THE MODULATION OF MCL-1 AND METHODS OF MODULATING CELL DEATH, CELL DIVISION, CELL DIFFERENTIATION AND METHODS OF TREATING DISORDERS” (priority 2010, published 2015).

Each structure is given as a SMILES string. Like-named read-outs stand apart in the source and are kept apart here.

Test [1] concerns MCL-1ΔNΔC. The test can be described thus: High-throughput competitive FP binding screen, FITC-MCL-1 SAHB/MCL-1ΔNΔC interaction.
Test [2] deals with BCL-XLΔC (Homo sapiens, UniProt Q07817). The test is described as follows: High-throughput competitive FP binding screen, FITC-BAD BH3/BCL-XLΔC interaction.
The target in test [3] is MCL-1ΔNΔC (Homo sapiens, UniProt Q07820). The test is described as follows: High-throughput competitive FP binding screen, FITC-MCL-1 SAHB/MCL-1ΔNΔC interaction. More on the design: the C-terminal alpha-helix was deleted from each of these constructs; GST (N, cleaved yes); made in house.
[4] abbreviates: selectivity for MCL-1ΔNΔC over BCL-XLΔC targeting (BCL-XL % Bound minus MCL-1 % Bound).
Setting [5] is: FITC-BAD BH3/BCL-XLΔC interaction pair, competitive FP screen.
The mark [6] stands for this setting: FITC-MCL-1 SAHB/MCL-1ΔNΔC interaction pair, competitive FP screen.

BCL-XLΔC, sequence (Q07817 1-212 limits assumed, stated change not applied): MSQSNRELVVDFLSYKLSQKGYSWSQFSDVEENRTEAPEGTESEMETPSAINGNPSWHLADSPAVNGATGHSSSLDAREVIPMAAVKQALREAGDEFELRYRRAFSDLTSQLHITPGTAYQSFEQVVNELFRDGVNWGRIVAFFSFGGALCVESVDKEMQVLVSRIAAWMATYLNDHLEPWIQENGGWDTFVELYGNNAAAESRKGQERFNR
MCL-1ΔNΔC (Homo sapiens, UniProt Q07820), sequence (Q07820 172-320 limits assumed, stated change not applied): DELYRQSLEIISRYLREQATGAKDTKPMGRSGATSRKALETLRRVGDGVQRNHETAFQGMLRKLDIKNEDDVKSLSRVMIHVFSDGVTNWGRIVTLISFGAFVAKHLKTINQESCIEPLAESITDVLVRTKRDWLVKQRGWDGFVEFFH

Take `O=C(O)c1cccc(-c2ccc(/C=C3\Sc4ccccc4C3=O)o2)c1`: the “Spec Values” in test [1] (setting [4]) is 64.25. For the same compound, in test [2] (setting [5]), the “BCL-XL % Bound” value was determined as 95.42%. In addition, in test [3] (setting [6]), the “MCL-1% Bound” value is reported as 31.17%.
On the same counts, the results for `Cc1c(Cl)cccc1N1C(=O)CC(N2CCCc3ccccc32)C1=O` (stereo not drawn) are 48.92, 84.74% and 35.82%.
In the same order, the values of `CC(C)(C)c1ccc(-c2nnc(S)[nH]2)cc1` are 48.83, 96.8% and 47.97%.
On the same counts, the results for `Cc1oc(-c2cccc(C(F)(F)F)c2)cc1C(=O)O` are 48.68, 81.9% and 33.22%.
On to `COc1cc(C(c2nnnn2C2CCCCC2)N2CCc3ccccc3C2)ccc1O` (stereo not drawn), for which the “Spec Values” in test [1] (setting [4]) is 48.33. Moreover, in test [2] (setting [5]), the “BCL-XL % Bound” value was determined as 105.8%. In addition, the “MCL-1% Bound” value in test [3] (setting [6]) worked out at 57.44%.
For the compound `CNc1sc(C(=O)c2cccs2)c(N)c1-c1nc2ccccc2s1`, the “Spec Values” in test [1] (setting [4]) is given as 48.22. Moreover, the “BCL-XL % Bound” value in test [2] (setting [5]) came out at 92.47%. Further, the “MCL-1% Bound” value in test [3] (setting [6]) is 44.25%.
In the same order, the values of `CCCCn1c2ccccc2c2nnc(S)nc21` are 48.16, 92.39% and 44.24%.
In the same order, the values of `CC1=CC(=O)C(CCCC2=CC(=O)C=CC2=O)=CC1=O` are 48.07, 92.47% and 44.41%.
On the same counts, the results for `c1ccc(-c2ccc3c(c2)c2c4n3CCN=C4CCC2)cc1` are 47.9, 68.24% and 20.34%.
Regarding `O=C(NCc1ccco1)c1ccc(-c2cc3ccccc3oc2=O)cc1`, in test [1] (setting [4]), the “Spec Values” worked out at 47.79. Also, the “BCL-XL % Bound” value in test [2] (setting [5]) turned out to be 115.7%. In addition, the “MCL-1% Bound” value in test [3] (setting [6]) is listed as 67.95%.
In the same order, the values of `NNCc1c(Cl)cccc1Cl` are 47.77, 103.5% and 55.76%.
On the same counts, the results for `COC(=O)c1ccc(C(c2cc3c(cc2O)OCO3)N2CCN(c3ccccc3)CC2)cc1` (stereo not drawn) are 47.71, 96.46% and 48.75%.
In the same order, the values of `CCOC(=O)c1c(N2C(=O)C3C4C=CC(O4)C3C2=O)sc2c1CCCC2` (stereo not drawn) are 47.7, 95.97% and 48.27%.
For `CC1=NN(c2ccccc2)C(=O)/C1=C/c1ccc(OC(=O)c2ccco2)c(Cl)c1`, the “Spec Values” in test [1] (setting [4]) is listed as 47.67. Further, the “BCL-XL % Bound” value in test [2] (setting [5]) was found to be 96.2%. The “MCL-1% Bound” value in test [3] (setting [6]) worked out at 48.53%.
Take `CC1(C)CC(=O)C(=Cc2cn(-c3ccccc3)nc2-c2cccs2)C(=O)C1`: the “Spec Values” in test [1] (setting [4]) was 47.55. Further, the “BCL-XL % Bound” value in test [2] (setting [5]) is given as 90.62%. Moreover, in test [3] (setting [6]), the “MCL-1% Bound” value is reported as 43.07%.
In the same order, the values of `CCOc1cccc(CNc2ccc(N3CCCC3)cc2)c1` are 47.31, 82.24% and 34.93%.
On to `COC(=O)c1c(NC(=O)C2CC2)sc(C)c1C`, for which, in test [1] (setting [4]), the “Spec Values” was 47.29. The “BCL-XL % Bound” value in test [2] (setting [5]) amounted to 101%. Besides, in test [3] (setting [6]), the “MCL-1% Bound” value is on record as 53.71%.
In the same order, the values of `Oc1ccc(/C=N/c2cccc(C(F)(F)F)c2)c(O)c1` are 47.26, 75.68% and 28.42%.
On the same counts, the results for `COC(=O)C1C(=O)NC(S)=C(C#N)C1c1ccccc1Cl` (stereo not drawn) are 47.12, 94.15% and 47.02%.
On the same counts, the results for `Cn1c(S)nnc1CNc1cccc(C(F)(F)F)c1` are 47.12, 102.2% and 55.09%.
As for `C=CCN1C(=O)/C(=C2/C(=O)Nc3ccccc32)c2ccccc21`, the “Spec Values” in test [1] (setting [4]) worked out at 47.06. Moreover, the “BCL-XL % Bound” value in test [2] (setting [5]) came out at 77.55%. Further, the “MCL-1% Bound” value in test [3] (setting [6]) was found to be 30.48%.
On the same counts, the results for `O=C(CSc1nnc(C2CC2)n1Cc1ccco1)c1cccc(Cl)c1` are 47.06, 98.2% and 51.14%.
On the same counts, the results for `O=S(=O)(NNc1cnc2ccccc2n1)c1ccccc1C(F)(F)F` are 47.02, 112.4% and 65.42%.
On the same counts, the results for `CC1(C)CC(=O)C2=C(C1)Nc1ccc3ncccc3c1C2c1ccc(O)c(O)c1` (stereo not drawn) are 47.01, 95.33% and 48.32%.
As to `N#C/C(=C/c1ccc(-c2ccc(C(=O)O)cc2)o1)c1ccc(Cl)cc1`, the “Spec Values” in test [1] (setting [4]) amounted to 46.64. Also, the “BCL-XL % Bound” value in test [2] (setting [5]) was 82.47%. Further, the “MCL-1% Bound” value in test [3] (setting [6]) came out at 35.83%.
In the same order, the values of `O=C(NC(=S)NCc1ccccc1)C1CCCC1` are 46.46, 92.1% and 45.64%.
In the same order, the values of `CNC(=S)N/N=C1\CCOc2ccc3ccccc3c21` are 46.39, 96.07% and 49.68%.
In the same order, the values of `CC1CCc2c(sc3ncn4c(S)nnc4c23)C1` (stereo not drawn) are 46.37, 95.03% and 48.65%.
With `Oc1ccc(SSc2ccc(O)cc2)cc1`, the “Spec Values” in test [1] (setting [4]) was 46.28. Besides, in test [2] (setting [5]), the “BCL-XL % Bound” value worked out at 104.4%. The “MCL-1% Bound” value in test [3] (setting [6]) is on record as 58.12%.
On the same counts, the results for `O=C(O)/C(S)=C\C=C\c1ccccc1` are 46.13, 90.49% and 44.36%.
In the same order, the values of `CC1(C)c2ssc(=S)c2-c2ccccc2N1C(=O)CSC#N` are 46.04, 93.06% and 47.02%.
Turning to `CN1CCC(N(C)Cc2cc(C(C)(C)C)c(O)c(C(C)(C)C)c2)CC1`, the “Spec Values” in test [1] (setting [4]) amounted to 45.97. Moreover, the “BCL-XL % Bound” value in test [2] (setting [5]) is reported as 109.3%. For the same compound, the “MCL-1% Bound” value in test [3] (setting [6]) is 63.36%.
On the same counts, the results for `O=C1c2ccccc2-c2onc3ccc(Oc4c(F)c(F)c(F)c(F)c4F)c1c23` are 45.97, 86.73% and 40.76%.
In the same order, the values of `O=C1c2ccccc2CCC1Sc1nnc(-c2ccncc2)o1` (stereo not drawn) are 45.54, 88.38% and 42.84%.
In the same order, the values of `N=C1NC(=O)/C(=C2/C(=O)Nc3ccc(Br)cc32)S1` are 45.52, 95.58% and 50.06%.
With `CCCCCSc1nnc(N/C=N/O)s1`, the “Spec Values” in test [1] (setting [4]) turned out to be 45.49. For the same compound, the “BCL-XL % Bound” value in test [2] (setting [5]) was found to be 98.25%. In addition, the “MCL-1% Bound” value in test [3] (setting [6]) was determined as 52.76%.
On the same counts, the results for `CCN(CC)c1ccc(C2C(C#N)=C(N)N(c3cccc(C)c3)C3=C2C(=O)CCC3)cc1` (stereo not drawn) are 45.46, 98.46% and 53.01%.
In the same order, the values of `Oc1ccc(C2Oc3ccccc3C3CC(c4ccccc4O)=NN32)cc1` (stereo not drawn) are 45.43, 93.42% and 47.99%.
Turning to `COC(=O)c1c(N)sc2c1Cc1ccccc1C2`, the “Spec Values” in test [1] (setting [4]) was 45.24. The “BCL-XL % Bound” value in test [2] (setting [5]) was found to be 92.93%. In addition, in test [3] (setting [6]), the “MCL-1% Bound” value came out at 47.69%.
For the compound `CC(C)CSC1=NSC2=NC(=O)/C(=C\c3ccc(SCc4ccco4)o3)C(=N)N12`, in test [1] (setting [4]), the “Spec Values” came to 45.2. Also, in test [2] (setting [5]), the “BCL-XL % Bound” value is reported as 82.8%. The “MCL-1% Bound” value in test [3] (setting [6]) is given as 37.61%.
In the same order, the values of `Cc1ccnc(NC(c2ccco2)c2c(C)[nH]c3ccccc23)c1` (stereo not drawn) are 45.19, 94.99% and 49.8%.
As to `Cc1c(Cl)cccc1N1C(=O)CC(Sc2nnnn2-c2ccccc2)C1=O` (stereo not drawn), the “Spec Values” in test [1] (setting [4]) came to 45.07. Besides, the “BCL-XL % Bound” value in test [2] (setting [5]) is reported as 97.5%. The “MCL-1% Bound” value in test [3] (setting [6]) was determined as 52.43%.
In the same order, the values of `O=c1cc(-c2ccccc2)oc2cc(O)c(O)c(O)c12` [Baicailen, reference compound] are 93.84, 104.2% and 10.32%.
Take `CC1=C(O)C(=O)C=C2C1=CC=C1[C@@]2(C)CC[C@@]2(C)[C@@H]3C[C@](C)(C(=O)O)CC[C@]3(C)CC[C@]12C` [Celastrol, reference compound]: the “Spec Values” in test [1] came to 64.19. Also, in test [2], the “BCL-XL % Bound” value turned out to be 97.09%. Besides, in test [3], the “MCL-1% Bound” value is given as 32.9%.
On the same counts, the results for `Oc1c(Cl)cc(Cl)c(Cl)c1Cc1c(O)c(Cl)cc(Cl)c1Cl` [Hexachlorophene, reference compound] are 59.35, 100.4% and 41.01%.
Consider `O=c1c(O)c(-c2cc(O)c(O)c(O)c2)oc2cc(O)cc(O)c12` [Myricetin, reference compound], for which, in test [1] (setting [4]), the “Spec Values” is 68.23. Besides, the “BCL-XL % Bound” value in test [2] (setting [5]) was 102.4%. Besides, the “MCL-1% Bound” value in test [3] (setting [6]) is 34.13%.
On the same counts, the results for `O=c1c(O)c(-c2ccc(O)c(O)c2)oc2cc(O)cc(O)c12` [Quercetin, reference compound] are 88.65, 105.3% and 16.69%.
